Results taken from patent publication US20100075907A1, “NEUROMEDIN U RECEPTOR AGONISTS AND USES THEREOF” (priority 2006, published 2010).
pEC50: −log10 of the molar value. Residues, ends and D or L forms follow the SMILES beside them. No end group written: not given here. *: point of attachment. X1 = CC(C)CCC[C@@H](C)[C@H]1CC[C@H]2[C@@H]3CC=C4C[C@@H](OC(=O)C*)CC[C@]4(C)[C@H]3CC[C@]12C; Succinimide(1-Et,3-yl) = CCN1C(=O)CC(*)C1=O; Palmitoyl = CCCCCCCCCCCCCCCC(=O)*

Legend:
Assay type in all cases: cell-based
mouse NMUR1-ATG = target: T1, mouse NMUR1-ATG (Mus musculus, UniProt O55040); experiment: FLIPR calcium mobilization assay, mouse NMUR1-ATG; design: expressed in transfected cells; host or cells: FLP-In CHO or HEK-293 FLP-In cells (pcDNA5); details: mouse NMUR1-ATG; for % Activity: maximum response at 1 μM compared to hNMU-25; for pEC50: FLIPR
T1 sequence (O55040 1-428): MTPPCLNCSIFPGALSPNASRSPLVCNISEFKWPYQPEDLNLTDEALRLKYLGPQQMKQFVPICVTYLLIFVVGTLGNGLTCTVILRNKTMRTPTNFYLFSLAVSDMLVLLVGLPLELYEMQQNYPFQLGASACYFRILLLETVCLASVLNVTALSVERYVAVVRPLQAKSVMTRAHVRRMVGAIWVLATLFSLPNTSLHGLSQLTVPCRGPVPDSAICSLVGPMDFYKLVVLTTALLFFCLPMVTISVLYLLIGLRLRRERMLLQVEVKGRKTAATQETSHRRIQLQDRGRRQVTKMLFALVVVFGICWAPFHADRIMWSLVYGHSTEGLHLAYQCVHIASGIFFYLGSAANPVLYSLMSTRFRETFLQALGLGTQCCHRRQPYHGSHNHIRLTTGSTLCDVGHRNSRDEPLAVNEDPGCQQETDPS
From the text: (§1) Human, mouse or rat cDNAs encoding NMUR1 or NMUR2 (as described in Howard et al. Nature 406: 70-74 (2000) were subcloned in pcDNA5 (Invitrogen) and transfected into FLP-In CHO cells and HEK-293 FLP-In cells purchased from Invitrogen (Carlsbad, Calif.) using lipofectamine (Invitrogen). The Flp-In system allows integration and expression of a particular gene of interest at a specific genomic location utilizing the Flp recombinase from yeast. The transfected cells were selected by growth in medium containing 200 μg/mL hygromycin (Invitrogen). Populations were frozen at early passage numbers, and these stocks were used for further studies. Stable clones that expressed the mRNAs were identified functionally by FLIPR as well as by RT-PCR. […] Two different rodent NMUR1 cell lines were thus generated: one with the codon as predicted from the genomic databases and another cell line with an engineered methionine (ATG) as the start codon. Additionally, stable cell lines expressing the human receptors were generated in HEK-293/aeq17 cells which stably express the aequorin gene under the CMV promoter. The human NMUR2 cDNA was cloned into pcDNA3.1 and human NMUR1 was subcloned into pIRES-puro (Clontech, Mountain View, Calif.), after transfection cells were selected in media containing G418 and either hygromycin (NMUR2) or puromycin (NMUR1).
(§2) The NMU receptors signal primarily through Gαq/11 proteins; therefore calcium mobilization assays can be utilized for functional activity.
(§3) Stable cell lines expressing human and or rodent NMUR1 or human NMUR2 receptors were plated at a density of 12,000 cells per well overnight on poly-lysine coated 384-well black-walled plates. The following day, the media was removed from the plates and the cells were subsequently loaded with Fluo-3 (Molecular Probes), a calcium sensitive dye, diluted in FLIPR buffer (1× Hank's buffered saline containing 20 mM HEPES, 0.1% BSA, 2.5 mM probenecid (Sigma) and 1.6 mM TR40). All reagents are from Invitrogen unless otherwise noted. Peptide stocks were resuspended in DMSO at a stock concentration of 2 mM and diluted in FLIPR buffer on the day of the experiment to a 4 μM working stock solution.
(§4) After a 90 minute incubation at room-temperature, cell plates were loaded onto a FLIPR (Molecular Devices) to monitor cellular fluorescence (excitation=488 nm; emission=540 nm) before and after compound/peptide addition. Eight to twelve point dose responses were tested on NMUR-expressing cell lines using FLIPR with 1 μM peptide as the highest dose. The response after peptide addition was taken as the maximum fluorescence units minus the fluorescence immediately prior to stimulation for each well. EC50 values were calculated using GraphPad Prism (San Diego, Calif.) software.
(§5) In vitro responses of Neuromedin U receptor agonists (NMU1 to NMU25) in the FLIPR assay for human (Table 3), mouse (Table 4) and rat (Table 5) NMUR1 and NMUR2. EC50s are reported in nM values. Percent activity refers to the maximum response at 1 μM compared to the hNMU-25 response at the same concentration. NT=not tested.

rat NMUR1-ATG = target: T2, rat NMUR1-ATG (Rattus norvegicus, UniProt Q9JJI5); experiment: FLIPR calcium mobilization assay, rat NMUR1-ATG; design: expressed in transfected cells; host or cells: FLP-In CHO or HEK-293 FLP-In cells (pcDNA5); details: rat NMUR1-ATG; for % Activity: maximum response at 1 μM compared to hNMU-25; for pEC50: FLIPR
T2 sequence (Q9JJI5 1-425): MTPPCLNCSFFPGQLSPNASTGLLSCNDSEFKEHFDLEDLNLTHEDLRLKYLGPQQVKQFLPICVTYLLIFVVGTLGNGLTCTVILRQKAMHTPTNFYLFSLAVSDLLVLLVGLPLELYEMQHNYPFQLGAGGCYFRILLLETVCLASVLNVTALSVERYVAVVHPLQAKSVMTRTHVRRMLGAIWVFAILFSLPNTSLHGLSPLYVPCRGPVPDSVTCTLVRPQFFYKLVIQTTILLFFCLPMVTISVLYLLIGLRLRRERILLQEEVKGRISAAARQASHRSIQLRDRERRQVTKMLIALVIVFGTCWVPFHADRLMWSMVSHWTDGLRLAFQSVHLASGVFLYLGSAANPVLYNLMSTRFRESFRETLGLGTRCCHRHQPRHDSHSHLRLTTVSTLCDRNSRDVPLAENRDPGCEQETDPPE
From the text: as §1, §2, §3, §4, §5

hNMUR1 = target: T3, hNMUR1 (Homo sapiens, UniProt Q9HB89); experiment: FLIPR calcium mobilization assay, human NMUR1; design: expressed in transfected cells; host or cells: FLP-In CHO or HEK-293 FLP-In cells (pcDNA5); HEK-293/aeq17 lines (pIRES-puro) were also made; details: human NMUR1; for % Activity: maximum response at 1 μM compared to hNMU-25 response at same concentration; for pEC50: FLIPR
T3 sequence (Q9HB89 1-426): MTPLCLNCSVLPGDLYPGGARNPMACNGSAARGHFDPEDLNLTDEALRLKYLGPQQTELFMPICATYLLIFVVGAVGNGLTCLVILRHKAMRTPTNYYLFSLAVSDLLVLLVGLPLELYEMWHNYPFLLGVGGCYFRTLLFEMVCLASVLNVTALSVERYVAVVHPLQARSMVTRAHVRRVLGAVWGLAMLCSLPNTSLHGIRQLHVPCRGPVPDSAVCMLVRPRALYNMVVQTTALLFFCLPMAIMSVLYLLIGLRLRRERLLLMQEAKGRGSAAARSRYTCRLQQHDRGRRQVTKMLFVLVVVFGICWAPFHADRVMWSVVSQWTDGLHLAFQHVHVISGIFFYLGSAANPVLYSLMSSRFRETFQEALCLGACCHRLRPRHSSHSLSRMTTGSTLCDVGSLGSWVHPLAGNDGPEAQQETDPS
From the text: as §1, §2, §3, §4, §5

Row | Compound | % Activity (mouse NMUR1-ATG) [%] | % Activity (rat NMUR1-ATG) [%] | % Activity (hNMUR1) [%] | pEC50 (mouse NMUR1-ATG) | pEC50 (rat NMUR1-ATG) | pEC50 (hNMUR1)
1 | CCN1C(=O)CC(SC[C@H](NC(C)=O)C(=O)N[C@@H](CSC2CC(=O)N(CC)C2=O)C(=O)N[C@@H](Cc2ccccc2)C(=O)N[C@@H](CCCNC(=N)N)C(=O)N[C@H](C(=O)N[C@@H](CC(=O)O)C(=O)N[C@@H](CCC(=O)O)C(=O)N[C@@H](CCC(=O)O)C(=O)N[C@@H](Cc2ccccc2)C(=O)N[C@@H](CCC(N)=O)C(=O)N[C@@H](CO)C(=O)N2CCC[C@H]2C(=O)N[C@@H](Cc2ccccc2)C(=O)N[C@@H](C)C(=O)N[C@@H](CO)C(=O)N[C@@H](CCC(N)=O)C(=O)N[C@@H](CO)C(=O)N[C@@H](CCCNC(=N)N)C(=O)NCC(=O)N[C@@H](Cc2ccc(O)cc2)C(=O)N[C@@H](Cc2ccccc2)C(=O)N[C@@H](CC(C)C)C(=O)N[C@@H](Cc2ccccc2)C(=O)N[C@@H](CCCNC(=N)N)C(=O)N2CCC[C@H]2C(=O)N[C@@H](CCCNC(=N)N)C(=O)N[C@@H](CC(N)=O)C(N)=O)C(C)C)C1=O (stereo partly drawn) [NMU22] (Ac-C(Succinimide(1-Et,3-yl))C(Succinimide(1-Et,3-yl))FRVDEEFQSPFASQSRGYFLFRPRN-NH2) | 100 | 100 | 95.6 | – | – | –
2 | Ac-C4FRVDEEFQSPFASQSRGYFLFRPRN-CONH2 ({Ac-C(PEG 20 kDa)}-FRVDEEFQSPFASQSRGYFLFRPRN-NH2) [NMU21, C4 = Cys(PEG)20 kDa] | – | 99.9 | 93.2 | 8.04 | 7.71 | 7.84
3 | GYFLFRPRN-NH2 [NMU3] | 100 | 100 | 98.9 | – | – | –
4 | CCN1C(=O)CC(SC[C@H](NC(C)=O)C(=O)NCC(=O)N[C@@H](Cc2ccc(O)cc2)C(=O)N[C@@H](Cc2ccccc2)C(=O)N[C@@H](CC(C)C)C(=O)N[C@@H](Cc2ccccc2)C(=O)N[C@@H](CCCNC(=N)N)C(=O)N2CCC[C@H]2C(=O)N[C@@H](CCCNC(=N)N)C(=O)N[C@@H](CC(N)=O)C(N)=O)C1=O (stereo partly drawn) [NMU6] (Ac-C(Succinimide(1-Et,3-yl))GYFLFRPRN-NH2) | 100 | 100 | 96.7 | – | 9.00 | –
5 | Pam-C2FRVDEEFQSPFASQSRGYFLFRPRN-CONH2 ({Palmitoyl-C(PEG 40 kDa)}-FRVDEEFQSPFASQSRGYFLFRPRN-NH2) [NMU25, Pam = palmitoyl; C2 = Cys(PEG)240 kDa] | – | 99.6 | 83.0 | 7.99 | 7.70 | 6.78
6 | Ac-FRVDEEFQSPFASQSRGYFLFRPRN-NH2 [NMU2] | 100 | 89.2 | 99.0 | – | – | 8.26
7 | CC(=O)N[C@@H](CSCC(=O)O[C@H]1CC[C@@]2(C)C(=CC[C@H]3[C@@H]4CC[C@H]([C@H](C)CCCC(C)C)[C@@]4(C)CC[C@@H]32)C1)C(=O)NCC(=O)N[C@@H](Cc1ccc(O)cc1)C(=O)N[C@@H](Cc1ccccc1)C(=O)N[C@@H](CC(C)C)C(=O)N[C@@H](Cc1ccccc1)C(=O)N[C@@H](CCCNC(=N)N)C(=O)N1CCC[C@H]1C(=O)N[C@@H](CCCNC(=N)N)C(=O)N[C@@H](CC(N)=O)C(N)=O [NMU11] (Ac-C(X1)GYFLFRPRN-NH2) | 81.3 | 50.9 | 20.6 | – | – | –
8 | CCN1C(=O)CC(SC[C@H](NC(C)=O)C(=O)N[C@@H](Cc2ccccc2)C(=O)N[C@@H](CCC(N)=O)C(=O)N[C@@H](CO)C(=O)N2CCC[C@H]2C(=O)N[C@@H](Cc2ccccc2)C(=O)N[C@@H](C)C(=O)N[C@@H](CO)C(=O)N[C@@H](CCC(N)=O)C(=O)N[C@@H](CO)C(=O)N[C@@H](CCCNC(=N)N)C(=O)NCC(=O)N[C@@H](Cc2ccc(O)cc2)C(=O)N[C@@H](Cc2ccccc2)C(=O)N[C@@H](CC(C)C)C(=O)N[C@@H](Cc2ccccc2)C(=O)N[C@@H](CCCNC(=N)N)C(=O)N2CCC[C@H]2C(=O)N[C@@H](CCCNC(=N)N)C(=O)N[C@@H](CC(N)=O)C(N)=O)C1=O (stereo partly drawn) [NMU19] (Ac-C(Succinimide(1-Et,3-yl))FQSPFASQSRGYFLFRPRN-NH2) | 100 | 100 | 95.9 | – | – | –
9 | Ac-C2FQSPFASQSRGYFLFRPRN-CONH2 ({Ac-C(PEG 40 kDa)}-FQSPFASQSRGYFLFRPRN-NH2; not fully specified; printed as Ac-C2FQSPFASQSRGYFLFRPRN-CONH2) [NMU20, C2 = Cys(PEG)240 kDa] | – | – | – | 7.90 | 8.14 | 7.79
10 | CCN1C(=O)CC(SC[C@H](NC(C)=O)C(=O)N[C@@H](Cc2ccccc2)C(=O)N[C@@H](CCCNC(=N)N)C(=O)N[C@H](C(=O)N[C@@H](CC(=O)O)C(=O)N[C@@H](CCC(=O)O)C(=O)N[C@@H](CCC(=O)O)C(=O)N[C@@H](Cc2ccccc2)C(=O)N[C@@H](CCC(N)=O)C(=O)N[C@@H](CO)C(=O)N2CCC[C@H]2C(=O)N[C@@H](Cc2ccccc2)C(=O)N[C@@H](C)C(=O)N[C@@H](CO)C(=O)N[C@@H](CCC(N)=O)C(=O)N[C@@H](CO)C(=O)N[C@@H](CCCNC(=N)N)C(=O)NCC(=O)N[C@@H](Cc2ccc(O)cc2)C(=O)N[C@@H](Cc2ccccc2)C(=O)N[C@@H](CC(C)C)C(=O)N[C@@H](Cc2ccccc2)C(=O)N[C@@H](CCCNC(=N)N)C(=O)N2CCC[C@H]2C(=O)N[C@@H](CCCNC(=N)N)C(=O)N[C@@H](CC(N)=O)C(N)=O)C(C)C)C1=O (stereo partly drawn) [NMU8] (Ac-C(Succinimide(1-Et,3-yl))FRVDEEFQSPFASQSRGYFLFRPRN-NH2) | 100 | 97.2 | 99.1 | – | – | –
